The assay has as its target LasB (Pseudomonas aeruginosa (strain ATCC 15692 / DSM 22644 / CIP 104116 / JCM 14847 / LMG 12228 / 1C / PRS 101 / PAO1), UniProt P14756). Put plainly: In vitro LasB activity assay (fluorogenic substrate). Format: biochemical. To be noted: LasB 0.3 nM, substrate 150 μM, mean ± SD. How it is done: The LasB activity assay was performed as described previously (Nishino N, Powers J C. Pseudomonas aeruginosa elastase. Development of a new substrate, inhibitors, and an affinity ligand. J Biol Chem. 1980 Apr. 25; 255(8):3482-6) using the fluorogenic substrate 2-Aminobenzoyl-L-Alanyl-Glycyl-L-Leucyl-L-Alanyl-para-Nitro-Benzyl-Amide, purchased from Peptides International (Louisville, KY, USA) and vivitide, LLC (Gardner, MA, USA).
Fluorescence intensity was measured for 60 min at 37° C. in black 384-well microtiter plates (Greiner BioOne, Kremsmünster, Austria) using a CLARIOstar microplate reader (BMG Labtech, Ortenberg, Germany) with an excitation wavelength of […] and an emission wavelength of 415±20 nm. The assay was performed in a final volume of 50 μL of assay buffer (50 mM Tris, pH 7.2, 2.5 mM CaCl2), 0.075% Pluronic F-127, 5% DMSO) containing LasB at a final concentration of […] 0.3 nM and the substrate at 150 μM. Before substrate addition, compounds were preincubated with the enzyme at 37° C. for 15 min. Experiments were performed in duplicates and repeated for at least two times. Blank controls without enzyme were performed. After blank subtraction, the slope of samples containing inhibitors (v) was divided by the slope of a simultaneously started uninhibited enzymatic reaction (v0). IC50 values were determined with nonlinear regression using GraphPad Prism 5 (Graph Pad Software, San Diego, CA, USA) and are given as mean values ±standard deviation (SD). The slope factor was constrained to 1.

The structures appear in SMILES notation.

For orientation: IC50 means the concentration that gives 50% inhibition. The low end stands for inhibition by little substance, the high end for a need for much substance.

Sequence of LasB (P14756 198-498): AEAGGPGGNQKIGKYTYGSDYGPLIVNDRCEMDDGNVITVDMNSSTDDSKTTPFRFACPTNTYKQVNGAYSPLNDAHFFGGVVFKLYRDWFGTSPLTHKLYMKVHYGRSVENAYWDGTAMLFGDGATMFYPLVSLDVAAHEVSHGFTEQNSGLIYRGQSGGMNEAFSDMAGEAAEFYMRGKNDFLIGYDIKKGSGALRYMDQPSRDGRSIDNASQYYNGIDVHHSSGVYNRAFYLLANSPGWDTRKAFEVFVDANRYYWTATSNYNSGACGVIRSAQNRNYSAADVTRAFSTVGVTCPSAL

Consider `CC(C)CC(C(=O)NO)C(=O)Nc1ccc(Cn2cc(CNC(=O)c3ccc(I)cc3)nn2)cc1` (stereo not shown) [Compound 132, N-[[1-[[4-[[2-(Hydroxycarbamoyl)-4-methyl-pentanoyl]amino]phenyl]methyl]triazol-4-yl]methyl]-4-iodo-benzamide], for which the half-maximal inhibitory concentration (IC50) turned out to be 22.8 ± 0.1 nM. `CC(C)CC(C(=O)NO)C(=O)Nc1ccc(Cn2cc(CNC(=O)OC(C)(C)C)nn2)cc1` (stereo not shown) [Compound 133, Tert-butyl N-[[1-[[4-[[2-(hydroxycarbamoyl)-4-methyl-pentanoyl]amino]phenyl]methyl]triazol-4-yl]methyl]carbamate] returned an IC50 of 9.8 ± 0.4 nM. Take `CC(C)CC(C(=O)NO)C(=O)Nc1ccc(Cn2cc(CNc3ccc(I)cc3)nn2)cc1` (stereo not shown) [Compound 134, 2-(Hydroxycarbamoyl)-N-[4-[[4-[(4-iodoanilino)methyl]triazol-1-yl]methyl]phenyl]-4-methyl-pentanamide]: half-maximal inhibition (IC50) was put at 8.4 ± 0.5 nM. With `CC(C)CC(C(=O)NO)C(=O)Nc1ccc(Cn2cc(COc3ccc(Cl)cc3)nn2)cc1` (stereo not shown) [Compound 135, N-[4-[[4-[(4-Chlorophenoxy)methyl]triazol-1-yl]methyl]phenyl]-2-(hydroxycarbamoyl)-4-methyl-pentanamide] the figure was 9.8 ± 0.3 nM; with `CC(C)CC(C(=O)NO)C(=O)Nc1ccc(Cn2cc(Cc3ccc(Cl)cc3)nn2)cc1` (stereo not shown) [Compound 137, N-[4-[[4-[(4-Chlorophenyl)methyl]triazol-1-yl]methyl]phenyl]-2-(hydroxycarbamoyl)-4-methyl-pentanamide], 16.9 ± 1.3 nM; with `CC(C)CC(C(=O)NO)C(=O)Nc1ccc(Cn2cc(-c3ccc(I)cc3)nn2)cc1` (stereo not shown) [Compound 138, 2-(Hydroxycarbamoyl)-N-[4-[[4-(4-iodophenyl)triazol-1-yl]methyl]phenyl]-4-methyl-pentanamide], 37.8 ± 2.9 nM.

In the case of `CC(C)CC(C(=O)NO)C(=O)Nc1ccc(Cn2cc(CN3C(=O)c4ccccc4S3(=O)=O)nn2)cc1` (stereo not shown) [Compound 139, 2-(Hydroxycarbamoyl)-4-methyl-N-[4-[[4-[(1,1,3-trioxo-1,2-benzothiazol-2-yl)methyl]triazol-1-yl]methyl]phenyl]pentanamide], the IC50 came to 19.3 ± 0.6 nM. This IC50 is about 2-fold lower than that of the molecule before. With `CC(C)CC(C(=O)NO)C(=O)Nc1ccc(Cn2cc(CN)nn2)cc1` (stereo not shown) [Compound 140, N-[4-[[4-(Aminomethyl)triazol-1-yl]methyl]phenyl]-2-(hydroxycarbamoyl)-4-methyl-pentanamide] the figure was 55.9 ± 2.3 nM; with `CC(C)CC(C(=O)NO)C(=O)Nc1ccc(Cn2cc(CNS(=O)(=O)c3ccccc3Cl)nn2)cc1` (stereo not shown) [Compound 163, N-[4-[[4-[[(2-Chlorophenyl)sulfonylamino]methyl]triazol-1-yl]methyl]phenyl]-2-(hydroxycarbamoyl)-4-methyl-pentanamide], 4.3 ± 0.1 nM; with `CC(C)CC(C(=O)NO)C(=O)Nc1ccc(Cn2cc(CNS(=O)(=O)c3cccc(Cl)c3)nn2)cc1` (stereo not shown) [Compound 164, N-[4-[[4-[[(3-Chlorophenyl)sulfonylamino]methyl]triazol-1-yl]methyl]phenyl]-2-(hydroxycarbamoyl)-4-methyl-pentanamide], 2.4 ± 0.1 nM. In turn, `CC(C)CC(C(=O)NO)C(=O)Nc1ccc(Cn2cc(CNS(=O)(=O)Cc3ccc(Cl)cc3)nn2)cc1` (stereo not shown) [Compound 166, N-[4-[[4-[[(4-Chlorophenyl)methylsulfonylamino]methyl]triazol-1-yl]methyl]phenyl]-2-(hydroxycarbamoyl)-4-methyl-pentanamide] had a concentration for half-maximal inhibition (IC50) of 5.2 ± 0.3 nM. This IC50 is about 2.2-fold higher than that of the molecule before. For the molecule `CC(C)CC(C(=O)NO)C(=O)Nc1ccc(Cn2cc(CNS(=O)(=O)c3ccccc3)nn2)cc1` (stereo not shown) [Compound 167, N-[4-[[4-(Benzenesulfonamidomethyl)triazol-1-yl]methyl]phenyl]-2-(hydroxycarbamoyl)-4-methyl-pentanamide], the midpoint of inhibition, the IC50, lay at 5.5 ± 0.3 nM. Regarding `CC(C)CC(C(=O)NO)C(=O)Nc1ccc(Cn2cc(CNS(=O)(=O)C3CCCCC3)nn2)cc1` (stereo not shown) [Compound 168, N-[4-[[4-[(Cyclohexylsulfonylamino)methyl]triazol-1-yl]methyl]phenyl]-2-(hydroxycarbamoyl)-4-methyl-pentanamide], the IC50 was 2.7 ± 0.2 nM. This IC50 lies about 2-fold lower than the previous one.
